Each structure is given as a SMILES string.

The test system of the first series is β-amyloid peptide formation. The series can be described thus: Inhibition of β-amyloid peptide formation in human H4 cells. Format: cell-based. Conditions: H4 cells stably transfected to overexpress HPLAP-APP fusion protein; 18 hrs incubation; Aβ in supernatant; read-out: Binding affinity (IC50 in nM). The procedure: γ-Secretase inhibitors were also evaluated using in vitro assays based on the inhibition of Aβ formation in cultured cells. Cultured human cell lines, such as HEK293 and H4 cells, which express APP and γ-secretase activity or transfected derivative cell lines that overexpress wild-type APP, mutant APP, or APP fusion proteins will secrete Aβ peptides into the culture media that can be quantified as previously outlined (Dovey H. et al., J. Neurochem. 2001, 76, 173). The incubation of these cultured cells with γ-secretase inhibitors decreases the production of Aβ peptides. For instance, H4 cells stably transfected to overexpress the HPLAP-APP fusion protein described above were grown as above, detached, and adjusted to 2×10^5 cells/ml. 100 μl of the resulting suspension was then added to each well of a 96-well plate. After 4 hrs, the media was removed and replaced with 100 μl serum-free media containing various dilutions of the test compound. Plates were then incubated for 18 hrs at 37° C. and a 100 μl aliquot of the tissue culture supernatant was removed for determination of Aβ levels using time-resolved fluorescence of the homogenous sample as outlined above. The extent of Aβ inhibition was used to calculate the IC50 value for the test compound.
Representative compounds were evaluated in the above assay and were determined to inhibit Aβ formation.
Consider `CC(C)C[C@H](C(N)=O)N(Cc1ccc2c(c1)CCN(CC1CCC1)C2=O)S(=O)(=O)c1ccc(Cl)cc1` [Example 20, 2R-(N-(1-oxo-2-cyclobutylmethyl-1,2,3,4-tetrahydroisoquinolin-6-ylmethylamino)-N-4-chlorophenylsulfonyl)amino-4-methyl-pentanamide], for which the IC50 fell in the range of 0.25 to 50 nM.

Consider `CC(C)C[C@H](C(N)=O)N(Cc1ccc2c(c1)CCN(C)C2=O)S(=O)(=O)c1ccc(Cl)cc1` [Example 14, 2R-(N-(1-oxo-2-methyl-1,2,3,4-tetrahydroisoquinolin-6-ylmethylamino)-N-4-chlorophenylsulfonyl)amino-4-methyl-pentanamide], for which the IC50 was 0.25 to 50 nM.

For `CC(C)N1CCc2cc(CN([C@H](CC3CC3)C(N)=O)S(=O)(=O)c3ccc(Cl)cc3)ccc2C1=O` [Example 23, 2R-(N-(1-oxo-2-(2-propyl)-1,2,3,4-tetrahydroisoquinolin-6-ylmethylamino)-N-4-chlorophenylsulfonyl)amino-3-cyclopropyl-propanamide], the IC50 was in the range of 0.25 to 50 nM.

As for `CC(C)C[C@H](C(N)=O)N(Cc1ccc2c(c1)CCN(Cc1ccccn1)C2=O)S(=O)(=O)c1ccc(Cl)cc1` [Example 13, 2R-(N-(1-oxo-2-(2-pyridylmethyl)-1,2,3,4-tetrahydroisoquinolin-6-ylmethylamino)-N-4-chlorophenylsulonyl)amino-4-methyl-pentanamide], the IC50 was 0.25 to 50 nM.

Regarding `CCCCN1CCc2cc(CN([C@H](CC(C)C)C(N)=O)S(=O)(=O)c3ccc(Cl)cc3)ccc2C1=O` [Example 16, 2R-(N-(1-oxo-2-butyl-1,2,3,4-tetrahydroisoquinolin-6-ylmethylamino)-N-4-chlorophenylsulfonyl)amino-4-methyl-pentanamide], the IC50 fell in the range of 0.25 to 50 nM.

For the compound `CC(C)C[C@H](C(N)=O)N(Cc1ccc2c(c1)CCN(Cc1ccccc1)C2=O)S(=O)(=O)c1ccc(Cl)cc1` [Example 17, 2R-(N-(1-oxo-2-benzyl-1,2,3,4-tetrahydroisoquinolin-6-ylmethylamino)-N-4-chlorophenylsulfonyl)amino-4-methyl-pentanamide], the IC50 lay within 0.25 to 50 nM.

`CC(C)C[C@H](C(N)=O)N(Cc1ccc2c(c1)CCN(CC1CC1)C2=O)S(=O)(=O)c1ccc(Cl)cc1` [Example 19, 2R-(N-(1-oxo-2-cyclopropylmethyl-1,2,3,4-tetrahydroisoquinolin-6-ylmethylamino)-N-4-chlorophenylsulfonyl)amino-4-methyl-pentanamide]: the IC50 was in the range of 0.25 to 50 nM.

In the case of `CCC(CC)N1CCc2cc(CN([C@H](CC3CC3)C(N)=O)S(=O)(=O)c3ccc(Cl)cc3)ccc2C1=O` [Example 24, 2R-(N-(1-oxo-2-(3-pentyl)-1,2,3,4-tetrahydroisoquinolin-6-ylmethylamino)-N-4-chlorophenylsulfonyl)amino-3-cyclopropyl-propanamide], the concentration for half-maximal inhibition (IC50) was in the range of 0.25 to 50 nM.

On to `COCCN1CCc2cc(CN([C@H](CC(C)C)C(N)=O)S(=O)(=O)c3ccc(Cl)cc3)ccc2C1=O` [Example 18, 2R-(N-(1-oxo-2-(2-methoxyethyl)-1,2,3,4-tetrahydroisoquinolin-6-ylmethylamino)-N-4-chlorophenylsulonyl)amino-4-methyl-pentanamide], for which the half-inhibitory concentration (IC50) lay within 0.25 to 50 nM.

In the case of `CCCN1CCc2cc(CN([C@H](CC(C)C)C(N)=O)S(=O)(=O)c3ccc(Cl)cc3)ccc2C1=O` [Example 15, 2R-(N-(1-oxo-2-propyl-1,2,3,4-tetrahydroisoquinolin-6-ylmethylamino)-N-4-chlorophenylsulfonyl)amino-4-methyl-pentanamide], the IC50 was in the range of 0.25 to 50 nM.

Staying with this series, now noted: Homo sapiens; H4 cells stably transfected to overexpress HPLAP-APP fusion protein; 18 hrs incubation; Aβ in supernatant; read-out: Binding affinity (IC50 in nM).
`CC(C)C[C@H](C(N)=O)N(Cc1ccc2[nH]ccc2c1)S(=O)(=O)c1ccc(Cl)cc1` [Example 2, 2R-(N-indol-5-ylmethyl-N-4-chlorophenylsulfonyl)amino-4-methyl-pentanamide]: the IC50 lay in the range of 0.25 to 50 nM.

Regarding `CC(C)C[C@H](C(N)=O)N(Cc1ccc2c(c1)CCNC2=O)S(=O)(=O)c1ccc(Cl)cc1` [Example 5, 2R-(N-(1-oxo-1,2,3,4-tetrahydroisoquinolin-6-ylmethyl)-N-4-chlorophenylsulfonyl)amino-4-methyl-pentanamide], the IC50 lay within 0.25 to 50 nM.

Turning to `CCN1CCc2cc(CN([C@H](CC(C)C)C(N)=O)S(=O)(=O)c3ccc(Cl)cc3)ccc2C1=O` [Example 6, 2R-(N-(1-oxo-2-ethyl-1,2,3,4-tetrahydroisoquinolin-6-ylmethylamino)-N-4-chlorophenylsulfonyl)amino-4-methyl-pentanamide], the IC50 was 0.25 to 50 nM.

Turning to `CC(C)C[C@H](C(N)=O)N(Cc1ccc2c(c1)CCC(=O)N2)S(=O)(=O)c1ccc(Cl)cc1` [Example 7, 2R-(N-(2-oxo-1,2,3,4-tetrahydroquinolin-6-ylmethyl)-N-4-chlorophenylsulfonyl)amino-4-methyl-pentanamide], the IC50 fell in the range of 50 to 500 nM.

As for `CC(C)C[C@H](C(N)=O)N(Cc1ccc2c(c1)CCN2C(=O)C1CCCC1)S(=O)(=O)c1ccc(Cl)cc1` [Example 12, 2R-(N-1-cyclopentylcarbonylindolin-5-yl-N-4-chlorophenylsulfonyl)methylamino-4-methyl-pentanamide], the IC50 was in the range of 0.25 to 50 nM.

With `Cc1cc2cc(CN([C@H](CC(C)C)C(N)=O)S(=O)(=O)c3ccc(Cl)cc3)ccc2[nH]1` [Example 4, 2R-(N-(2-methylindol-5-ylmethyl)-N-4-chlorophenylsulfonyl)amino-4-methyl-pentanamide], the half-inhibitory concentration (IC50) lay in the range of 0.25 to 50 nM.

Turning to `Cc1cc2cc(CN([C@H](CC(C)C)C(N)=O)S(=O)(=O)c3ccc(Cl)cc3)ccc2n1C(=O)OC(C)(C)C` [Example 3, 2R-(N-(1-t-Butyloxycarbonyl-2-methylindol-5-ylmethyl)-N-4-chlorophenylsulfonyl)amino-4-methyl-pentanamide], the IC50 fell in the range of 0.25 to 50 nM.

For the compound `CCN1CCc2cc(CN([C@H](CC3CC3)C(N)=O)S(=O)(=O)c3ccc(Cl)cc3)ccc2C1=O` [Example 21, 2R-(N-(1-oxo-2-ethyl-1,2,3,4-tetrahydroisoquinolin-6-ylmethylamino)-N-4-chlorophenylsulfonyl)amino-3-cyclopropyl-propanamide], the IC50 fell in the range of 0.25 to 50 nM.

On to `CCN1CCc2cc(CN([C@H](CC(F)F)C(N)=O)S(=O)(=O)c3ccc(Cl)cc3)ccc2C1=O` [Example 22, 2R-(N-(1-oxo-2-ethyl-1,2,3,4-tetrahydroisoquinolin-6-ylmethylamino)-N-4-chlorophenylsulfonyl)amino-4,4-difluorobutanamide], for which the IC50 fell in the range of 0.25 to 50 nM.

On to `CC(C)C[C@H](C(N)=O)N(Cc1ccc2c(c1)CCN2C)S(=O)(=O)c1ccc(Cl)cc1` [Example 10, 2R-(N-1-methylindolin-5-yl-N-4-chlorophenylsulfonyl)methylamino-4-methyl-pentanamide], for which the IC50 is 0.25 to 50 nM.

For `CC(C)C[C@H](C(N)=O)N(Cc1ccc2c(c1)CCN2)S(=O)(=O)c1ccc(Cl)cc1` [Example 9, 2R-(N-indolin-5-yl-N-4-chlorophenylsulfonyl)methylamino-4-methyl-pentanamide], the IC50 was in the range of 0.25 to 50 nM.

System in the next series: not listed separately
The series can be described thus: HPLC log P. In kind it is physicochemical. Conditions: pH 7.0.
Compound `CC(C)C[C@H](C(N)=O)N(Cc1ccc2[nH]ccc2c1)S(=O)(=O)c1ccc(Cl)cc1` [Example 2, 2R-(N-indol-5-ylmethyl-N-4-chlorophenylsulfonyl)amino-4-methyl-pentanamide] showed a chromatographic logP of 3.81.

In turn, `Cc1cc2cc(CN([C@H](CC(C)C)C(N)=O)S(=O)(=O)c3ccc(Cl)cc3)ccc2[nH]1` [Example 4, 2R-(N-(2-methylindol-5-ylmethyl)-N-4-chlorophenylsulfonyl)amino-4-methyl-pentanamide] came in with a chromatographic logP of 4.21.

In general, IC50 refers to the concentration at which inhibition is half-maximal. For orientation: chromatographic logP means a lipophilicity value derived from retention on a column. Higher therefore signals higher lipophilicity.
